Laboratory results taken from patent publication US7341751B2, “Eggplant extract for medical treatments” (priority 2006, dated 2008).

Key:
[1] = test system: TNF-alpha secretion by peripheral blood mononuclear cells (PBMC); test: LPS-stimulated PBMC cytokine secretion, TNF-alpha ELISA; format: cell-based, human
Description: (§1) FIG. 1 and the following two tables show data from an in vitro experiment using PBMC from a healthy donor who provided peripheral blood mononuclear cells (PBMC) for this experiment. (PBMC are isolated from whole blood by gradient centrifugation. PBMC contain mostly lymphocytes and monocytes (neutrophils having been excluded by the separation procedure). They are commonly used to assess immune functions in vitro.) The PBMC were stimulated with LPS. (LPS is lipopolysaccharide, a component of bacterial cell wall, which is commonly used as an antigen non-specific stimulator (also called a mitogen) of immune cell proliferation, synthesis and secretion. It is commonly used in vitro to simulate an immune response in vivo. Chemicals which block the LPS stimulated synthesis or secretion of pro-inflammatory mediators by immune cells (primarily lymphocytes and monocytes) may have similar activity in vivo and therefore may have anti-inflammatory activity in vivo.) After 24 to 48 hours, the supernatant from each culture well was collected and assayed for the pro-inflammatory mediator noted (tumer necrosis factor (TNF)-alpha or IL-1-beta using a modified enzyme linked immunosorbent assay (ELISA). […]

[2] = test system: IL-1-beta secretion by peripheral blood mononuclear cells (PBMC); test: LPS-stimulated PBMC cytokine secretion, IL-1-beta ELISA; format: cell-based, human
Description: as §1

[3] = eggplant extract plus iron at 0.25%, percent of maximal secretion

With `C[C@]12CCC(=O)C=C1CC[C@@H]1[C@@H]2[C@@H](O)C[C@@]2(C)[C@H]1CC[C@]2(O)C(=O)CO` [Hydrocortisone] the “Mean TNF-alpha release” value ([1]; eggplant extract + iron at 0.25%, supernatant after 24 to 48 hours, +LPS no drug 11753.0) was 298.8 picograms of cytokine per 1x10^6 cells, the “Mean TNF-alpha released, percent of +LPS (no drug)” value [1, 3] was 3% and the “Mean IL-1 beta release” value ([2]; eggplant extract + iron at 0.25%, supernatant after 24 to 48 hours, +LPS no drug 3507.8) was 1757.8 picograms of cytokine per 1x10^6 cells. The “Mean IL-1-beta released, percent of +LPS (no drug)” value [2, 3] was 50%.
